Results: patent US6737383B1, “Herbicidal oxadiazolidines” (priority 1999, dated 2004)

Columns and labels:
[1] = system: bedstraw; assay: Test B pre/postemergence bedstraw; type: in vivo, Galium aparine
Outline: (§1)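 Test chemicals in a non-phytotoxic solvent mixture with surfactant were sprayed preemergence onto planted seeds and postemergence onto plants 2 to 18 cm tall (1- to 4-leaf stage). After twelve to sixteen days in a greenhouse, injury was visually rated against untreated controls from 0 (no effect) to 10 (complete control).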

[2] = system: blackgrass; assay: Test B pre/postemergence blackgrass; type: in vivo, Alopecurus myosuroides
Outline: as §1

[3] = system: surinam grass; assay: Test B pre/postemergence surinam grass; type: in vivo, Brachiaria decumbens
Outline: as §1

[4] = system: cocklebur; assay: Test B pre/postemergence cocklebur; type: in vivo, Xanthium strumarium
Outline: as §1

[5] = system: corn; assay: Test B pre/postemergence corn; type: in vivo, Zea mays
Outline: as §1

[6] = system: crabgrass; assay: Test B pre/postemergence crabgrass; type: in vivo, Digitaria sanguinalis
Outline: as §1

[7] = system: morningglory; assay: Test B pre/postemergence morningglory; type: in vivo, Ipomoea hederacea
Outline: as §1

[8] = system: pigweed; assay: Test B pre/postemergence pigweed; type: in vivo, Amaranthus retroflexus
Outline: as §1

[9] = system: rape; assay: Test B pre/postemergence rape; type: in vivo, Brassica napus
Outline: as §1

[10] = system: sugar beet; assay: Test B pre/postemergence sugar beet; type: in vivo, Beta vulgaris
Outline: as §1

[11] = system: velvetleaf; assay: Test B pre/postemergence velvetleaf; type: in vivo, Abutilon theophrasti
Outline: as §1

[12] = system: wheat; assay: Test B pre/postemergence wheat; type: in vivo, Triticum aestivum
Outline: as §1

[13] = system: wild oat; assay: Test B pre/postemergence wild oat; type: in vivo, Avena fatua
Outline: as §1

[14] = system: purple nutsedge; assay: Test B pre/postemergence purple nutsedge; type: in vivo, Cyperus rotundus
Outline: as §1

[15] = system: smallflower flatsedge; assay: Test B flood test smallflower flatsedge; type: in vivo, Cyperus difformis
Outline: (§2)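 Flood test on plants grown to the 2-leaf stage; treated plants kept in greenhouse twelve to sixteen days, then visually rated against controls on a 0 (no effect) to 10 (complete control) scale.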

[16] = system: duck salad; assay: Test B flood test duck salad; type: in vivo, Heteranthera limosa
Outline: as §2

[17] = Postemergence, Rate 62 g/ha, scale 0 to 10, 0 is no effect, 10 is complete control
[18] = Postemergence, Rate 250 g/ha, scale 0 to 10, 0 no effect, 10 complete control
[19] = Preemergence, Rate 62 g/ha, scale 0 to 10 (0 no effect, 10 complete control)
[20] = Preemergence, Rate 125 g/ha, scale 0 to 10 (0 no effect, 10 complete control)
[21] = Preemergence, Rate 250 g/ha, scale of 0 to 10 where 0 is no effect and 10 is complete control
[22] = Preemergence, Rate 500 g/ha, scale 0 (no effect) to 10 (complete control)
[23] = Rate 125 g/ha, Postemergence, scale 0 to 10, 0 no effect, 10 complete control
[24] = Rate 500 g/ha, Postemergence, scale 0 to 10, 0 no effect, 10 complete control
[25] = Rate 125 g/ha, Postemergence section (flood test species), scale 0 to 10, 0 no effect, 10 complete control
[26] = Rate 500 g/ha, listed under Postemergence (flood test species), scale 0 to 10, 0 no effect, 10 complete control
[27] = flood test, listed under Postemergence, Rate 250 g/ha, scale 0 to 10, 0 no effect, 10 complete control

Cc1cccc(C(C)C)c1-n1c(=O)on(C(=O)N(c2ccccc2)C(C)C)c1=O [Compound 66]
Bedstraw plant response rating [1, 17]: 0 | Bedstraw plant response rating [1, 18]: 0 | Bedstraw plant response rating [1, 19]: 0 | Plant response rating, Bedstraw [1, 20]: 0 | Plant response rating, Bedstraw [1, 21]: 0 | Bedstraw plant response rating [1, 22]: 0 | Bedstraw plant response rating [1, 23]: 0 | Bedstraw plant response rating [1, 24]: 2 | Blackgrass plant response rating [2, 17]: 0 | Blackgrass plant response rating [2, 18]: 2 | Blackgrass plant response rating [2, 19]: 0 | Plant response rating, Blackgrass [2, 20]: 0 | Plant response rating, Blackgrass [2, 21]: 0 | Blackgrass plant response rating [2, 22]: 0 | Blackgrass plant response rating [2, 23]: 0 | Blackgrass plant response rating [2, 24]: 3 | B. signalgrass plant response rating [3, 17]: 0 | B. signalgrass plant response rating [3, 18]: 0 | B. signalgrass plant response rating [3, 19]: 0 | Plant response rating, B. signalgrass [3, 20]: 0 | Plant response rating, B. signalgrass [3, 21]: 0 | B. signalgrass plant response rating [3, 22]: 0 | B. signalgrass plant response rating [3, 23]: 0 | B. signalgrass plant response rating ([3]; Rate 500 g/ha, Postemergence, scale of 0 to 10 where 0 is no effect and 10 is complete control): 0 | Cocklebur plant response rating [4, 17]: 0 | Cocklebur plant response rating [4, 18]: 0 | Cocklebur plant response rating [4, 19]: 0 | Plant response rating, Cocklebur [4, 20]: 0 | Plant response rating, Cocklebur [4, 21]: 0 | Cocklebur plant response rating [4, 22]: 0 | Cocklebur plant response rating [4, 23]: 0 | Cocklebur plant response rating [4, 24]: 0 | Corn plant response rating [5, 17]: 0 | Corn plant response rating [5, 18]: 0 | Corn plant response rating [5, 19]: 0 | Plant response rating, Corn [5, 20]: 0 | Plant response rating, Corn [5, 21]: 0 | Corn plant response rating [5, 22]: 0 | Corn plant response rating [5, 23]: 0 | Corn plant response rating [5, 24]: 2 | Crabgrass plant response rating [6, 17]: 0 | Crabgrass plant response rating [6, 18]: 0 | Crabgrass plant response rating [6, 19]: 0 | Plant response rating, Crabgrass [6, 20]: 2 | Plant response rating, Crabgrass [6, 21]: 4 | Crabgrass plant response rating [6, 22]: 8 | Crabgrass plant response rating [6, 23]: 0 | Crabgrass plant response rating [6, 24]: 0 | Morningglory plant response rating [7, 17]: 0 | Morningglory plant response rating [7, 18]: 1 | Morningglory plant response rating [7, 19]: 0 | Plant response rating, Morningglory [7, 20]: 0 | Plant response rating, Morningglory [7, 21]: 0 | Morningglory plant response rating [7, 22]: 0 | Morningglory plant response rating [7, 23]: 1 | Morningglory plant response rating [7, 24]: 2 | Redroot pigweed plant response rating [8, 17]: 0 | Redroot pigweed plant response rating [8, 18]: 0 | Redroot pigweed plant response rating [8, 19]: 0 | Plant response rating, Redroot pigweed [8, 20]: 0 | Plant response rating, Redroot pigweed [8, 21]: 0 | Redroot pigweed plant response rating [8, 22]: 0 | Redroot pigweed plant response rating [8, 23]: 0 | Redroot pigweed plant response rating [8, 24]: 4 | Rape plant response rating [9, 17]: 0 | Rape plant response rating [9, 18]: 0 | Rape plant response rating [9, 19]: 0 | Plant response rating, Rape [9, 20]: 0 | Plant response rating, Rape [9, 21]: 0 | Rape plant response rating [9, 22]: 0 | Rape plant response rating [9, 23]: 0 | Rape plant response rating [9, 24]: 0 | Sugarbeets plant response rating [10, 17]: 0 | Sugarbeets plant response rating [10, 18]: 0 | Sugarbeets plant response rating [10, 19]: 0 | Plant response rating, Sugarbeets [10, 20]: 0 | Plant response rating, Sugarbeets [10, 21]: 0 | Sugarbeets plant response rating [10, 22]: 0 | Sugarbeets plant response rating [10, 23]: 0 | Sugarbeets plant response rating [10, 24]: 0 | Velvetleaf plant response rating [11, 17]: 0 | Velvetleaf plant response rating [11, 18]: 0 | Velvetleaf plant response rating [11, 19]: 0 | Plant response rating, Velvetleaf [11, 20]: 0 | Plant response rating, Velvetleaf [11, 21]: 0 | Velvetleaf plant response rating [11, 22]: 0 | Velvetleaf plant response rating [11, 23]: 0 | Velvetleaf plant response rating [11, 24]: 2 | Wheat plant response rating [12, 17]: 0 | Wheat plant response rating [12, 18]: 0 | Wheat plant response rating [12, 19]: 0 | Plant response rating, Wheat [12, 20]: 0 | Plant response rating, Wheat [12, 21]: 0 | Wheat plant response rating [12, 22]: 0 | Wheat plant response rating [12, 23]: 0 | Wheat plant response rating [12, 24]: 0 | Wild oats plant response rating [13, 17]: 0 | Wild oats plant response rating [13, 18]: 0 | Wild oats plant response rating [13, 19]: 0 | Plant response rating, Wild oats [13, 20]: 0 | Plant response rating, Wild oats [13, 21]: 0 | Wild oats plant response rating [13, 22]: 2 | Wild oats plant response rating [13, 23]: 0 | Wild oats plant response rating [13, 24]: 0 | Nutsedge plant response rating [14, 17]: 0 | Nutsedge plant response rating [14, 18]: 0 | Nutsedge plant response rating [14, 19]: 0 | Plant response rating, Nutsedge [14, 20]: 0 | Nutsedge plant response rating [14, 22]: 6 | Nutsedge plant response rating [14, 23]: 0 | Nutsedge plant response rating [14, 24]: 0 | S. Flatsedge plant response rating [15, 17]: 0 | S. Flatsedge plant response rating [15, 25]: 0 | S. Flatsedge plant response rating [15, 26]: 3 | S. Flatsedge plant response rating [15, 27]: 2 | Ducksalad plant response rating [16, 17]: 0 | Ducksalad plant response rating [16, 25]: 0 | Ducksalad plant response rating [16, 26]: 2 | Ducksalad plant response rating [16, 27]: 0
